Assay: solvent given as SMILES
[1] = in O=P(c1ccccc1)(c1ccccc1)c1ccccc1Oc1ccccc1P(=O)(c1ccccc1)c1ccccc1

Work on c1ccc(-c2nc(-c3ccccc3)nc(-c3ccc(-n4c5ccccc5c5c6oc7ccccc7c6ccc54)cc3)n2)cc1 yielded an emission maximum (in C1CCCCC1) of 393.5 nm, an emission maximum (in C1CCOC1) of 473.68 nm and an emission maximum (in Cc1ccccc1) of 430.34 nm. It also gave an emission maximum [1] of 429.14 nm.
With Cc1cc(C)n2c1C=C1c3ccccc3C(c3c[nH]c4ccccc34)=[N+]1[B-]2(F)F the emission maximum (in C1CCOC1) was 606 nm, the emission maximum (in CC#N) was 602 nm and the emission maximum (in CCCCCC) was 598 nm. For the same compound, the emission maximum (in CO) was 603 nm, the emission maximum (in Cc1ccccc1) was 608 nm and the emission maximum (in ClCCl) was 606 nm.
In the case of CCN(CC)c1ccc2cc3c([o+]c2c1)/C(=C/Nc1ccccc1)CCC3, the emission maximum (in CCO) was 647 nm, the emission maximum (in ClC(Cl)Cl) was 642 nm and the emission maximum (in ClCCl) was 647 nm.
CCCCCCC1(CCCCCC)c2cc(-c3nc(-c4ccc5c(c4)C(CCCCCC)(CCCCCC)c4cc(N6c7ccccc7Oc7ccccc76)ccc4-5)nc(-c4ccc5c(c4)C(CCCCCC)(CCCCCC)c4cc(N6c7ccccc7Oc7ccccc76)ccc4-5)n3)ccc2-c2ccc(N3c4ccccc4Oc4ccccc43)cc21 showed an emission maximum (in C1CCOC1) of 616 nm, an emission maximum (in CCCCCC) of 485 nm and an emission maximum (in Cc1ccccc1) of 525 nm. It also gave an emission maximum (in ClCCl) of 621 nm.
Work on C[NH+](C)c1c2ccccc2cc2ccccc12 yielded an emission maximum (in O) of 400 nm.
Work on CCCCNc1ccc(NCCCC)c2c1C(=O)c1ccccc1C2=O yielded an emission maximum (in C1CCCCC1) of 665 nm, an emission maximum (in C1COCCO1) of 672 nm and an emission maximum (in CC(C)=O) of 671 nm. It also gave an emission maximum (in CCCCCCCCCCO) of 668 nm, an emission maximum (in CCCCCCCO) of 661 nm and an emission maximum (in CCCCCCO) of 670 nm. It also gave an emission maximum (in CCCCO) of 671 nm, an emission maximum (in CCO) of 674 nm and an emission maximum (in CN(C)C=O) of 664 nm. For the same compound, the emission maximum (in CO) was 666 nm, the emission maximum (in CS(C)=O) was 678 nm and the emission maximum (in ClC(Cl)(Cl)Cl) was 675 nm. For the same compound, the emission maximum (in c1ccccc1) was 667 nm.
In the case of CCCC1(CCC)c2ccccc2-c2ccc(-c3ccc(C(C)(C)C)cc3)cc21, the emission maximum (in C1CCCCC1) was 314 nm.
Work on COc1c(Br)c2cc(=O)oc3ccc4cccc1c4c32 yielded an emission maximum (in CC1CCCO1) of 487 nm.
With CCN1C(=CC2=C([O-])C(=Cc3sc4ccccc4[n+]3CC)C2=O)Sc2ccccc21 the emission maximum (in CO) was 663 nm and the emission maximum (in ClC(Cl)Cl) was 687 nm.
In the case of COC(=O)/C(C#N)=c1\s/c(=c2/s/c(=C(/C#N)C(=O)OC)c3cc(-c4ccc(OC)cc4)sc23)c2sc(-c3ccc(OC)cc3)cc12, the emission maximum (in Cc1ccccc1) was 680 nm.
With Oc1ccccc1-c1nc2c(c3c1-c1ccccc1CC3)-c1ccccc1CC2 the emission maximum (in ClCCl) was 413 nm.
With C[C@]12SC(=O)C=C1c1nc(-c3ccccc3O)[nH]c1C1=CC(=O)S[C@@]12C the emission maximum (in CC#N) was 407 nm.
COc1ccc2c(-c3nc(-c4cccc(C)c4)no3)cc(=O)oc2c1 showed an emission maximum (in CCO) of 464 nm and an emission maximum (in ClC(Cl)Cl) of 450 nm.
Work on CCCCn1c(-c2ccc(-c3nnc(-c4ccc5ccccc5c4)o3)cc2)nc(-c2ccccc2)c1-c1ccccc1 yielded an emission maximum (in ClCCl) of 445 nm.
Compound Cc1cc(=O)oc2ccc3ccc(-c4cn(Cc5ccccc5)nn4)cc3c12 has an emission maximum (in CCO) of 420 nm.
For COc1cc2c(cc1OC)C1=C[C@H](c3ccc(C)cc3)C3(C(C#N)=C(C#N)N1CC2)c1ccccc1-c1ccccc13, the emission maximum (in ClCCl) was 403 nm.
For CNc1ncc2nc(C(=O)OC)n(Cc3ccccc3)c2n1, the emission maximum (in C1COCCO1) was 405 nm, the emission maximum (in CC#N) was 413 nm and the emission maximum (in CO) was 429 nm. The emission maximum (in ClCCl) was 403 nm.
COc1ccc(C2=C(c3ccc(OC)cc3)[Si](c3ccccc3)(c3ccccc3)c3ccccc32)cc1 showed an emission maximum (in C1CCOC1) of 457 nm.
C(=N\c1ccc(-c2cn3nc(-c4cccs4)sc3n2)cc1)/c1c2ccccc2cc2ccccc12 showed an emission maximum (in ClC(Cl)Cl) of 526 nm.
For c1ccc(-c2nc(-c3cc(-n4c5ccccc5c5ccccc54)cc(-n4c5ccccc5c5ccccc54)c3)nc(-c3cc(-n4c5ccccc5c5ccccc54)cc(-n4c5ccccc5c5ccccc54)c3)n2)cc1, the emission maximum (in C1CCCCC1) was 438.78 nm, the emission maximum (in C1CCOC1) was 595.92 nm and the emission maximum (in Cc1ccccc1) was 504.9 nm.
CCCCCCCCCCCCn1cccc1/C=C/c1cc(OCCCC)c(/C=C/c2cccn2CCCCCCCCCCCC)cc1OCCCC showed an emission maximum (in Cc1ccccc1) of 472 nm.
Compound c1ccc2c(-c3ccc4sc5ccc(-c6c7ccccc7cc7ccccc67)cc5c4c3)c3ccccc3cc2c1 has an emission maximum (in C1CCCCC1) of 399.14 nm, an emission maximum (in CC#N) of 402.78 nm and an emission maximum (in ClCCl) of 408.25 nm.
In the case of CCCCCCOc1cc(/C=C/c2cc(OCCCCCC)c(/C=C/c3cc(OCCCCCC)c(C=C4C(=O)c5ccccc5C4=O)cc3OCCCCCC)cc2OCCCCCC)c(OCCCCCC)cc1C=C1C(=O)c2ccccc2C1=O, the emission maximum (in ClCCl) was 662 nm.
CC(C)(C)c1ccc2c(c1)c1cc(C(C)(C)C)ccc1n2-c1ccc(N(c2ccc(-c3ccc(-c4ccc(-c5ccc(N(c6ccc(-n7c8ccc(C(C)(C)C)cc8c8cc(C(C)(C)C)ccc87)cc6)c6ccc(-n7c8ccc(C(C)(C)C)cc8c8cc(C(C)(C)C)ccc87)cc6)cc5)s4)s3)cc2)c2ccc(-n3c4ccc(C(C)(C)C)cc4c4cc(C(C)(C)C)ccc43)cc2)cc1 showed an emission maximum (in ClCCl) of 494 nm.
Compound CC(C)[Si](C#Cc1c2cc3ccccc3cc2c(C#C[Si](C)(C)C)c2cc3ccccc3cc12)(C(C)C)C(C)C has an emission maximum (in ClCCl) of 649 nm.
For F[B-]1(F)n2cccc2C(c2ccccc2)=C2C=CC(c3cccc(OC4=[N+]5C(=C(c6ccccc6)c6cc(Br)c(Br)n6[B-]5(F)F)C=C4Br)c3)=[N+]21, the emission maximum (in ClC(Cl)Cl) was 568 nm.
In the case of CC(C)(C)c1ccc(-c2c(-c3cccc(-n4c5ccccc5c5ccccc54)c3)c(C#N)c(-c3cccc(-n4c5ccccc5c5ccccc54)c3)c(-c3ccc(C(C)(C)C)cc3)c2-c2ccc(C(C)(C)C)cc2)cc1, the emission maximum (in C1CCOC1) was 412 nm.
COc1ccc(/C=C(\C)c2nc3ccccc3s2)cc1 showed an emission maximum (in C1CCCCC1) of 400 nm and an emission maximum (in CO) of 420 nm.
CCC1(CC)c2cc(N(c3ccccc3)c3ccccc3)ccc2-c2c1c1c(c3c2C(CC)(CC)c2cc(N(c4ccccc4)c4ccccc4)ccc2-3)C(CC)(CC)c2cc(N(c3ccccc3)c3ccccc3)ccc2-1 gave an emission maximum (in C1CCOC1) of 390 nm, an emission maximum (in CC#N) of 404 nm and an emission maximum (in CC(C)=O) of 395 nm. It also gave an emission maximum (in CCCCCC) of 382 nm and an emission maximum (in Cc1ccccc1) of 386 nm.
For COCCOCCOCCOc1cc(C=O)c(OCCOCCOCCOC)cc1C=O, the emission maximum (in CC(C)(C)O) was 478 nm, the emission maximum (in CC(C)CO) was 479 nm and the emission maximum (in CC(C)O) was 481 nm. For the same compound, the emission maximum (in CCCCO) was 472 nm, the emission maximum (in CCCO) was 471 nm and the emission maximum (in CCO) was 465 nm. It also gave an emission maximum (in CN(C)C=O) of 464 nm, an emission maximum (in CNC=O) of 450 nm and an emission maximum (in CO) of 467 nm. The emission maximum (in NC=O) was 458 nm and the emission maximum (in O) was 495 nm.
In the case of CC(C)(C)c1ccc2c(c1)c1cc(C(C)(C)C)ccc1n2-c1ccc(S(=O)(=O)c2ccc(-n3c4ccc(C(C)(C)C)cc4c4cc(C(C)(C)C)ccc43)cc2)cc1, the emission maximum (in Cc1ccccc1) was 404 nm and the emission maximum [1] was 423 nm.
CCCCCCCCCCCCOc1cc(C(=O)Nc2ccc(-c3ccc4c(c3)C(=O)c3ccccc3-4)cc2)cc(OCCCCCCCCCCCC)c1OCCCCCCCCCCCC showed an emission maximum (in C1CCOC1) of 529 nm.
Compound CC(=O)OC[C@@H]1O[C@H](n2cnc3c2N=CN2Cc4c[n+](C)c(C)nc4N=C32)[C@@H](O)[C@H]1O has an emission maximum (in CC#N) of 415 nm, an emission maximum (in CCO) of 416 nm and an emission maximum (in O) of 409 nm.
Compound CCCCCCCCN1c2ccc(C#Cc3ccc(F)cc3)cc2Sc2cc(C=O)ccc21 has an emission maximum (in C1CCOC1) of 513 nm, an emission maximum (in CC#N) of 538 nm and an emission maximum (in CCCCCC) of 488 nm. The emission maximum (in CO) was 466 nm, the emission maximum (in CS(C)=O) was 542 nm and the emission maximum (in Cc1ccccc1) was 507 nm. It also gave an emission maximum (in ClC(Cl)Cl) of 539 nm.

Reference: the Deep4Chem optical property database
